Laboratory results taken from patent US20060286182A1, “Synergistic cinnamon combinations and methods for enhancing insulin activity” (Abeille Pharmaceuticals, Inc., priority 2005, published 2006).

Tested on: 3T3-L1 adipocytes
Assay: Oil Red O staining of triglyceride content (lipogenesis) in differentiating 3T3-L1 adipocytes
Assay type: cell-based, murine
Details: for increase in triglyceride content (lipogenic/adipogenic increase) relative to the solvent control: 50 μg test material/mL, Day 0 to Day 7 of differentiation
Description: The Model—The 3T3-L1 murine fibroblast model is used to study the potential effects of compounds on adipocyte differentiation and adipogenesis.
As preadipocytes, 3T3-L1 cells have a fibroblastic appearance. They replicate in culture until they form a confluent monolayer, after which cell-cell contact triggers Go/G1 growth arrest. Terminal differentiation of 3T3-L1 cells to adipocytes depends on proliferation of both pre- and postconfluent preadipocytes. Subsequent stimulation with 3-isobutyl-1-methylxanthane, dexamethasone, and high dose of insulin (MDI) for two days prompts these cells to undergo postconfluent mitotic clonal expansion, exit the cell cycle, and begin to express adipocyte-specific genes. Approximately five days after induction of differentiation, more than 90% of the cells display the characteristic lipid-filled adipocyte phenotype.
Cell culture and Treatment—The murine fibroblast cell line 3T3-L1 was obtained from the American Type Culture Collection (Manasus, Va.) and sub-cultured according to instructions from the supplier. For experiments, cells were cultured in DMEM containing 10% FBS-HI, with added 50 units penicillin/mL and 50 μg streptomycin/mL, and maintained in log phase prior to experimental setup. Cells were grown in a 5% CO2 humidified incubator at 37° C. Components of the pre-confluent medium included (1) 10% FBS/DMEM containing 4.5 g glucose/L; (2) 50 U/mL penicillin; and (3) 50 μg/mL streptomycin. Growth medium was made by adding 50 mL of heat inactivated FBS and 5 mL of penicillin/streptomycin to 500 mL DMEM. This medium was stored at 4° C. Before use, the medium was warmed to 37° C. in a water bath.
3T3-T1 cells were seeded at an initial density of about 4×10^4 cells/cm^2 in 24-well plates. For two days, the cells were allowed to grow to reach confluence. Following confluence, the cells were forced to differentiate into adipocytes by the addition of differentiation medium; this medium consisted of (1) 10% FBS/DMEM (high glucose); (2) 0.5 mM methylisobutylxanthine; (3) 0.5 μM dexamethasone and (4) 10 Hg/mL insulin. After three days, the medium was changed to post-differentiation medium consisting of 10 μg/mL insulin in 10% FBS/DMEM.
Test material was added in dimethyl sulfoxide at Day 0 of differentiation and every two days throughout the maturation phase (Day 7). Whenever fresh media was added, fresh test material was also added. As a positive control, troglitazone was added to achieve a final concentration of 4.4 μg/mL (10 μM). Metformin, Sample A and the metformin/Sample A combinations of 1:10, 1:5 and 1:2.5 were all tested at 50 μg test material/mL. Metformin, Sample B and the metformin/Sample B combination of 1:10 were all tested at 50 μg test material/mL.

Row | SMILES | increase in triglyceride content (lipogenic/adipogenic increase) relative to the solvent control | increase in triglyceride content (lipogenic/adipogenic increase) relative to the solvent control (listed as glipizide) | increase in triglyceride content of the 3T3-L1 cells (positive control, 4.4 μg/mL (10 μM), Day 0 to Day 7, relative to solvent control) [%]
1 | Cc1cnc(C(=O)NCCc2ccc(S(=O)(=O)NC(=O)NC3CCCCC3)cc2)cn1 [Glipizide] | 40% | increased triglyceride biosynthesis | –
2 | Cc1c(C)c2c(c(C)c1O)CCC(C)(COc1ccc(CC3SC(=O)NC3=O)cc1)O2 (stereo not shown) [Troglitazone, troglitazone] | – | – | 54
3 | CN(C)C(=N)N=C(N)N [metformin] | four | – | –
